The values that follow come from patent US20060287251A1, “Combination therapy for glycaemic control” (priority 2003, published 2006).

For this assay, the system named is diabetic Zucker (fa/fa) rats. The assay can be described thus: Glutaminyl thiazolidine and Metformin alone or in combination, glycemic control in diabetic Zucker (fa/fa) rats. It is filed as in vivo, rat. Here is the method:
Ten or eleven weeks old male Zucker (fa/fa) rats were purchased from Charles River (Sulzfeld, Germany). Animals were kept under standardized semi-barrier conditions with controlled temperature (22±2° C.) on a 12/12 hours light/dark cycle (light on at 06:00 a.m.). Standard pelleted chow (ssniff®, Soest, Germany) and tap water acidified with HCl were allowed ad libitum. At the age of 12 weeks the animals (N=42) were divided in random order into six experimental groups to be medicated. Definition of the Experimental Groups for the Medications (GT=glutaminyl thiazolidine):
The single or combined doses per kg b.w. were solved in 5 mL dist. water for oral administration.
The study was started with the 12 to 13 weeks old Zucker (fa/fa) rats. At the beginning of the study an OGTT was performed (2 g glucose/kg body weight (b.w.); administration volume: 5 mL/kg of a 40% solution; B. Braun Melsungen, Melsungen, Germany) after a 16 h fast. […] Dosing was performed at t=5 min before OGTT by gavage.
Blood samples were taken from tail veins to measure blood glucose and serum insulin at −15, ±0 min, 15, 30, 60, 90, 120 and 180 min (the latter time without insulin samples) with respect to time of glucose administration.
After the first OGTT the animals in the groups were dosed twice daily with the respective drugs at 08:00 AM and at 04:00 PM, respectively:
During the two weeks of medication morning blood glucose was measured before the 08:00 AM medication at Monday, Wednesday and Friday.
Food intake was determined every day during the time of medication.
All the animals were weighted three times per week at 7:30 AM.
A second OGTT was performed after two weeks of medication (Day 15). The food was withdrawn at 04:00 PM the day before (16 h fast). The OGTT was performed with pre-medication at −5 min and oral glucose loading at ±0 min. Blood samples were taken from tail veins to measure blood glucose, and serum insuline at −15, ±0 min, 15, 30, 60, 90, 120 and 180 min (the latter time without insulin samples).
Glycated hemoglobin was measured before (Day −7) and on Day 18.
Glucose-For determination of glucose 20 μL blood were collected at −15, ±0 min (before OGTT) and 15, 30, 60, 90, 120 and 180 min post OGTT.
Insulin-Insulin concentrations were assayed by the antibody RIA method (Linco Research, Inc. St. Charles, Mo., USA).
Glycated haemoglobin-Percentage of glycated hemoglobin A (HbA1c) was estimated with the “DCA 2000R Hämoglobin A1c-Reagenz kit”(Bayer Vital GmbH, Fernwald, Germany).
The body weight was measured using a platform balance (Scaltec, Heiligenstadt, Germany).
Mixed venous blood samples from the tails were collected into 20 μL glass capillaries, which were placed in standard tubes filled with 1 ml solution for hemolysis (blood glucose measurement) and in sample tubes for serum insulin (50 μL blood).
Raw data of glucose analysis were provided by IDK to probiodrug in Excel format as soon as possible. Data for each drug and each parameter (glucose, insulin) were summarized by descriptive statistics (mean, SEM). […] Changes from baseline were calculated and summarized by descriptive statistic.

In the case of `NC(=O)CC[C@H](N)C(=O)N1CCSC1` [glutaminyl thiazolidine], under “GT 60 mg/kg b.w. and/or Metformin 125 mg/kg b.w. (Met-low), b.i.d. oral, p<0.05 vs. Control”, the “reactive and absolute G-AUC” value is recorded as “significantly reduced”. Moreover, the “glucose tolerance curve in the OGTT” value (GT 60 mg/kg b.w. and/or Metformin 125 mg/kg b.w. (Met-low), b.i.d. oral, vs. Control) is on record as “significantly improved glucose tolerance curves”. Further, the glucose tolerance entry (subchronic (18 days) b.i.d. administration, diabetic fatty Zucker rats (fa/fa)) is listed as “improved glucose tolerance”.
